According to US6063776A, “Sitostanol formulation with emulsifier to reduce cholesterol absorption and method for preparing and use of same” (Washington University, priority 1999, dated 2000):
Read-outs that look alike come from different tables or passages of the source.

Tests used:
[1] = Solubility in artificial bile of sonicated, lyophilized sitostanol mixtures (Example 6); format: physicochemical; conditions: compared with lecithin and lysolecithin / SSL
Procedure: Solubility in artificial bile was determined by adding 8 mM sodium taurocholate 5 mM PC 0.15 M NaCl 15 mM sodium phosphate pH 7.4 (artificial bile), rotating for 30 min. at 37° and centrifuging at 17,000×g for 1 min. The pellet was washed once and the combined sups and pellet were counted separately.

[2] = Solubility of sitostanol mixtures dried from chloroform in artificial bile (Example 1); format: physicochemical; conditions: artificial bile (8 mM sodium taurocholate, 5 mM soy lecithin, pH 7.4), 37° C, 30 min; mixture dried from chloroform
Procedure: An aliquot, containing 1.2 μMol of sitostanol, was transferred to an evacuation tube and the solvent was removed under reduced pressure (<50 mtorr). The experiment was initiated by adding 0.5 mL of artificial bile (8 mM sodium taurocholate containing 5 mM soy lecithin and 0.15 mM NaCl, pH 7.4) followed by rotation at 8 rev/min for 30 min at 37° C. The tube was then centrifuged for 1 minute at 17,000×g to precipitate any solid material, the supernatant was removed and added to scintillation fluid for measurement of radioactivity, and the percent of radioactivity in the artificial bile supernatant was calculated.

[3] = Solubility in artificial bile with variable amounts of lecithin, repeated extraction (Example 3); format: physicochemical; conditions: tenfold excess of lecithin
Procedure: Sitostanol, tracer amount of [^3 H]sitostanol, and other compounds that are found in the gut or that are commonly used as food additives were mixed together in chloroform solution at a fixed mole ratio. An aliquot, containing 1.2 μMol of sitostanol, was transferred to an evacuation tube and the solvent was removed under reduced pressure (<50 mtorr). The experiment was initiated by adding 0.5 mL of artificial bile (8 mM sodium taurocholate containing 5 mM soy lecithin and […], pH 7.4) followed by rotation at 8 rev/min for 30 min at 37° C. The tube was then centrifuged for 1 minute at 17,000×g to precipitate any solid material, the supernatant was removed and added to scintillation fluid for measurement of radioactivity, and the percent of radioactivity in the artificial bile supernatant was calculated. Table I below summarizes the solubility of sitostanol mixtures in the presence of artificial bile salt.
The effectiveness of variable amounts of lecithin to solubilize sitostanol was studied as in Example #1, except that after rotation at 37° for 30 min residual sedimenting sitostanol was re-extracted twice by vortexing with 0.5 ml additional artificial bile and recentrifuging. The following results were obtained:
When [^3 H]phosphatidylcholine was added as a tracer instead of [^3 H]sitostanol, the amount of lecithin solubilized was 93.3%. […]

serum cholesterol = conditions: cited from earlier work
[4] = system: hypocholesterolemic activity; conditions: rat, in vivo; cited from earlier work
[5] = in vivo; cited from earlier work
cholesterol absorption = conditions: cited from earlier work

CCCCCCCCCCCCCCCCCC(=O)OC(C)C(=O)OC(C)C(=O)[O-].[Na+] (centres unmarked) [SSL, Sodium stearoyl-2-lactylate]
effectiveness in solubilizing sitostanol [1]: as effective as lecithin and lysolecithin

CC[C@H](CC[C@@H](C)[C@H]1CC[C@H]2[C@@H]3CC[C@H]4C[C@@H](O)CC[C@]4(C)[C@H]3CC[C@]12C)C(C)C [Sitostanol, sitostanol]
Soluble Sterol [2]: 2.3% | sitostanol remaining insoluble [3]: 32% | reduction of serum cholesterol (serum cholesterol; 1.5 g/day, severe hypercholesterolemia): 15% | effect in moderate hypercholesterolemia (serum cholesterol; 3 g/day): no effect | potency relative to other phytosterols [4]: more potent than other phytosterols | absorption [5]: non-absorbable

CC[C@H](CC[C@@H](C)[C@H]1CC[C@H]2[C@@H]3CC=C4C[C@@H](O)CC[C@]4(C)[C@H]3CC[C@]12C)C(C)C [sitosterol]
decrease of serum cholesterol levels (serum cholesterol; 3-9 g/day powdered sitosterol): 12% | reduction of serum cholesterol (serum cholesterol; 5-18 g sitosterol/day): 16-20%

neomycin
effect on cholesterol absorption (cholesterol absorption; given chronically (cholestyramine) or orally (neomycin)): reduces cholesterol absorption effectively

sitostanol ester
less effective at reducing cholesterol absorption (cholesterol absorption; ester dissolved in dietary fat compared to the unesterified sterol, humans): 21%
